Patent US4954491A, “Method of treatment using 18-cyanoprogesterone derivatives” (Merrell Dow Pharmaceuticals Inc., priority 1989, dated 1990)

What was measured:
[1] = system: enzymes in the synthesis of aldosterone; assay: inhibition of enzymes in the synthesis of aldosterone (rat adrenal capsule/glomerulosa homogenates, [3H]-DOC substrate); format: biochemical, Sprague-Dawley rats; details: Conc 10 μM, 1 μM [3H]-DOC, 10-minute assay, 25° C., pH 7.4; for f moles/min/mg: buffer control 246
Experimental: Young male Sprague-Dawley rats were maintained on a sodium-deficient diet for about two weeks prior to use. From these animals, adrenal capsule/glomerulose homogenates were prepared (6 mg/ml) in pH 7.4 assay buffer [MgCl2 8.5 mM, CaCl2 2.7 mM, KCl 3.13 mM, NaCl 7.591 mM, TRIS 50 mM and 0.1% triethylamine]and centrifuged 500xg for 10 minutes.
Assays were conducted in 35 ml glass tubes maintained at 25° C. in a Dubnoff shaker with 95% O2 /5% CO2. The tubes contained the following material: 100 μl of an NADPH^+ generating system, 300 μl of adrenal capsular/glomerulosa cytosol, and 50 μl of test compound or buffer (control). After initial preincubation intervals of 20 minutes, the 10-minute assay was started by the addition of 50 μl of tritium-labelled substrate, i.e., 1 μM [^3 H]-DOC. Reactions were quenched by the addition of 5 ml of ethyl acetate and non-radiolabelled steroids were also added. The samples were extracted twice with 5 ml of ethyl acetate and the solvent evaporated under nitrogen at 30°-40° C.
Residues were redissolved in methanol:water (40:60) with 0.1% triethylamine and high performance liquid chromatography was used to separate products on a Cl8 reverse phase (5 μ ODS-Hypersil) column (4.6×250 mm, Shannon) with a 1 ml/min flow rate using an MeOH:H2 O gradient (solvent A 10/90:solvent B 90/10).
Unchanged substrate and products formed were monitored by UV absorbance at 246 nm and the amount of steroid compound present was quantified by [^3 H]radioactivity. Using this procedure, the following results were observed: […]

rabbits [2] = details: Auel et al.; cited from earlier work
rabbits [3] = details: Auel et al.; cited from earlier work; remark: listed apart in the source

Row | Compound | % Inhibition [1] [%] | f moles/min/mg [1] [f moles/min/mg] | pharmacological activity in the Clauberg test (rabbits [2]) | pharmacological activity in the anti-Clauberg test (rabbits [3])
1 | CC(=O)[C@H]1CC[C@H]2[C@@H]3CCC4=CC(=O)CC[C@]4(C)[C@H]3CC[C@]12CC#N [3,20-Dioxopregn-4-ene-18-carbonitrile] | 52.5 | 117 | inactive | inactive
2 | CC(=O)[C@H]1CC[C@H]2[C@@H]3CCC4=CC(=O)CC[C@]4(C)[C@H]3[C@@H](O)C[C@]12CC#N [11β-Hydroxy-3,20-dioxopregn-4-ene-18-carbonitrile] | 33.3 | 164 |  | 
